The conditions of data set [1]: at 20° C.; cited from earlier work.
The nature of data set [2]: Chemical degradation of flumioxazin in contact with aqueous salt solution.
Data set [3] can be described thus: Solubility of flumioxazin in organic solvents.
The nature of data set [4]: Adsorption of glyphosate by colloidal hydrophilic silica (HPLC of supernatant). The format is physicochemical. Particulars: 23% a.e. aqueous solution of glyphosate isopropylammonium salt, 20° C., 16 hours. From the text:
Where the water-soluble active ingredient is a salt of the herbicide glyphosate, it was initially feared that addition of colloidal hydrophilic silica might reduce herbicidal effectiveness by adsorption of glyphosate to the silica. A test was therefore conducted to determine the degree of adsorption of glyphosate by the highest concentration of colloidal hydrophilic silica likely to be used in a composition of the invention, i.e. 5% by weight, and by even higher concentrations.
The procedure for this test is to add a weighed amount of Aerosil™ COK-84 colloidal hydrophilic silica to a measured volume of glyphosate isopropylammonium salt solution of known concentration (23% a.e. by weight) in a stoppered glass bottle and agitate gently at a temperature of 20° C. for 16 hours. The solution is then centrifuged to deposit the silica, leaving a clear supematant. The supernatant is analyzed for glyphosate by HPLC. The amount of adsorption is calculated from the reduction in glyphosate concentration in the supernatant solution by comparison with the initial concentration.

The subject of data set [5] is inutade (Polygonum longisetum). The data set can be described thus: Greenhouse tank-mix study, herbicidal effectiveness (Table 1). The format is in vivo. The settings on record: glyphosate 2160 g a.e./ha + flumioxazin 0 g/ha. The text has this:
(§1) Tank-mix studies have shown that addition of a relatively small amount of flumioxazin to glyphosate alleviates both the above-mentioned disadvantages. Data from a tank-mix study in a greenhouse illustrating the benefit of simultaneous application of glyphosate+flumioxazin over a higher rate of glyphosate alone are presented in Table 1. Herbicide rates are given in grams per hectare (g/ha); rates shown for glyphosate (which was applied in this study as the isopropylammonium salt) are expressed as acid equivalent (a.e.). Herbicidal effectiveness is measured as percent inhibition by comparison with untreated plants, based on visual assessment by a technician trained in the art of making such assessments, at four times, namely 3, 7, 20 and 27 days after treatment (DAT). Data are presented for two dicotyledonous weed species, “inutade” (Polygonum longisetum) and “tsuyukusa” (Commelina communis), that are known to tolerate high rates of glyphosate.

Data set [6] has as its system tsuyukusa (Commelina communis). Described as above. The data set is classed as in vivo. The settings on record: glyphosate 2160 g a.e./ha + flumioxazin 0 g/ha.
Source text: as §1

For the compound `C#CCN1C(=O)COc2cc(F)c(N3C(=O)C4=C(CCCC4)C3=O)cc21` [flumioxazin, 2-[7-fluoro-3,4-dihydro-3-oxo-4-(2-propynyl)-2H-1,4-benzoxazin-6-yl]-4,5,6,7-tetrahydro-1H-isoindole-1,3(2H)-dione], the specific gravity in data set [1] is 1.51. Moreover, in data set [2] (benzyl acetate as the organic solvent, compared with phenylxylylethane), the “rate of chemical degradation” value is on record as “much more rapid”. For the same compound, the chemical degradation result in data set [2] (composition of the invention, aqueous phase mono(isopropylammonium) glyphosate pH about 4.5 to about 5, even at elevated temperatures) is recorded as “insignificant”; in data set [2] (exposed to a concentrated aqueous salt solution such as a solution of glyphosate salt for prolonged periods) it was “undergo chemical degradation”. Also, the rate of degradation entry in data set [2] (pH of the aqueous phase raised (addition of a base or dibasic salt of glyphosate)) is “significant increase”. The results for the “solubility in organic solvent” value in data set [3] (benzyl acetate) and in data set [3] (phenylxylylethane) were “rather soluble” and “only very sparingly soluble”, respectively.

Take `O=C(O)CNCP(=O)(O)O` [glyphosate, N-phosphonomethylglycine]: the glyphosate adsorption in data set [4] (silica concentration 10%) turned out to be 12%; in data set [4] (silica concentration 20%), 40%. Also, the percent inhibition came out at 0% in data set [5] (3 DAT); 0% in data set [5] (7 DAT); 45% in data set [5] (20 DAT); 70% in data set [5] (27 DAT); 0% in data set [6] (3 DAT); 0% in data set [6] (7 DAT). For the same compound, the percent inhibition was 50% in data set [6] (20 DAT) and 62% in data set [6] (27 DAT).

The values above are taken from patent publication US6569809B1, “Package-mix agricultural chemical compositions having improved stability” (Monsanto Company, priority 1999, dated 2003).
